For series [1] the following is noted: literature statement; cited from earlier work.
Series [2] in a line: Chemical stability (physical properties). The class given is physicochemical.
The next series concerns conscious rats. Briefly: In vivo bioassay for natriuresis, kaliuresis, diuresis and mean arterial pressure in conscious rats. Further details: species or system female Sprague-Dawley rats. Conditions: for Natriuretic Response (R): Rn = SR/FR, >0.67 active.
The next series has as its target Na^+ /K^+ -ATPase (Bos taurus, UniProt Q08DA1). In words: Na+/K+-ATPase (sodium pump) inhibition assay, 86Rb+ uptake in MDBK cells. The class given is cell-based, bovine (Madin-Darby bovine kidney cells). Conditions: 0.2-200 ng/well. The method, then:
The assay in MDBK cells has been described previously (see Benaksas et al., above). The assay is described briefly here. Madin-Darby bovine kidney (MDBK) cells (ATCC:CCL22) were maintained in Dulbecco's Modified Eagle's Medium (DMEM) with 5% Fetal Bovine Serum and 5% Bovine Calf Serum in a 5% CO2 /95% humidified air atmosphere at 37° C. and split (1:2) once per week.
One day before the assay, cells were plated in a 96-well plate at a density of 5×10^5 cells/well in DMEM with serum. On the day of the assay the medium was removed and the cells washed with phosphate buffered saline (PBS) before addition of 100 μL of assay media (122 mM NaCl, 1.8 mM CaCl2, 0.8 mM MgSO4, 24 mM NaHCO3, 1 mM sodium pyruvate, 25 mM glucose, 14 mM glycylglycine, 0.2% phenol red, 8 mM Na2 HPO4 1.15 mM KH2 PO4, pH 8.0) and 100 μl of sample. The plate was preincubated for 30 minutes at 37° C., then chilled on ice for 10 minutes. To each well was added 0.15 μCi ^86 RbCl (Amersham) in 10 μL of assay media. The plate was then incubated at 37° C. for 10 minutes. A portion (100 μL) of the supernatant was counted with 0.5 mL of scintillation cocktail in a liquid scintillation counter. As a control for Na^+ /K^+ -ATPase inhibition, a dose response curve for ouabain in the range of 10^-5 -10^-8 M was obtained. Intra-experiment coefficient of variation for ouabain was 3-15%. […]

Structures are written as SMILES. Values joined by “and” are separate entries in the source; they are usually repeats but may differ in a detail not shown here. Equal values may be shown once. “Also recorded” adds a separate entry of the source.

Description for conscious rats: Female Sprague-Dawley (Harlan) rats (200-250 g) were cannulated in the femoral artery and vein for monitoring of mean arterial pressure (MAP) and infusion of saline and samples, respectively. The bladder was catheterized for collection of urine in ten-minute periods. Furosemide (0.4 mg/kg bwt; 1 mg/mL in 0.17% saline) was infused as a positive control at the beginning of the sixth ten-minute period. The sample was infused at the beginning of the seventeenth ten-minute period. Urine was collected for another 150 minutes. The volume of the urine was determined gravimetrically and the Na^+ and K^+ concentrations determined with a Beckman E2A electrolyte analyzer.
The natriuretic response of a sample was normalized to the dose of furosemide infused. The net sodium excretion for the infusion of furosemide or sample was calculated as follows. The median sodium excretion value (μmoles Na^+ /10 minute period) for the five periods before infusion of furosemide or sample was used to establish a baseline value for the calculation of ΔUNaV(=μmoles Na^+ period-baseline μmoles Na^+) for administration of either furosemide or sample respectively. The sum of ΔUNaV for the four periods following infusion of furosemide was the net sodium excreted for furosemide, defined as FR. The sum of ΔUNaV for the fifteen periods following infusion of the sample was the net sodium excreted for the sample defined as SR. The natriuretic ratio Rn (or normalized natriuretic response) of a sample was calculated by dividing SR by FR(Rn =SR/FR).

In the case of `C[C@@H]1O[C@@H](O[C@H]2C[C@@H](O)[C@]3(CO)[C@H]4[C@H](O)C[C@]5(C)[C@@H](C6=CC(=O)OC6)CC[C@]5(O)[C@@H]4CC[C@]3(O)C2)[C@H](O)[C@H](O)[C@H]1O` [Ouabain], in series [1], the natriuretic activity result is recorded as “not, however, natriuretic”.
For `C[C@H]1O[C@@H](O[C@H]2[C@@H](O)C[C@H](O[C@H]3[C@@H](O)C[C@H](O[C@H]4CC[C@@]5(C)[C@H](CC[C@@H]6[C@@H]5C[C@@H](O)[C@]5(C)[C@@H](C7=CC(=O)OC7)CC[C@]65O)C4)O[C@@H]3C)O[C@@H]2C)C[C@H](O)[C@@H]1O` [digoxin], in series [1], the natriuretic activity entry is “not, however, natriuretic”.
With `Cc1c(O)cc2c(c1C)OC(C)(CCC(=O)O)CC2` (stereo not drawn) [LLU-α, 6-hydroxy-2,7,8-trimethylchroman-2-propanoic acid], the “stability in CDCl3” value in series [2] (CDCl3) was “Unstable”. For the same molecule, the “stability in dilute base” value in series [2] (dilute base) is on record as “instability in dilute base; also recorded: Unstable”. In the series on conscious rats (8 μg/kg, further purified on acetic acid/acetonitrile RP-HPLC (seventh step)), the natriuretic activity entry is listed as “active”. The natriuretic dose-response curve result in the series on conscious rats (Table III) was “narrow and biphasic”. Also, in the series on conscious rats (crude isolates from second RP-HPLC step), the “natriuretic activity of isolates” value is listed as “natriuretically active”. Also, the “sodium excretion in urine relative to potassium excretion” value in the series on conscious rats (in mammals) was “increasing sodium excretion in the urine in mammals without a corresponding increase in potassium excretion”. Also, the “kaliuresis (potassium excretion) on infusion” value in the series on conscious rats (infused into conscious rats) is listed as “no detectable kaliuresis”. Besides, the natriuresis on infusion entry in the series on conscious rats (infused into the rat (FIGS. 3A and B)) was “sustained natriuresis”. Moreover, in the series on conscious rats (infused into the rat, data not shown), the “effect on blood pressure” value was “no effect on blood pressure”. In the series with conscious rats (on infusion, conscious rats), the “change in mean arterial pressure” value was “does not cause a significant change in mean arterial pressure; also recorded: Neither LLU-α nor -γ caused a significant change in mean arterial pressure”. Further, the “natriuretic activity at lower or higher doses” value with conscious rats (partially purified (sixth purification step), doses below or above 4-8 μg/kg) is given as “no activity”. In the series with conscious rats (partially purified, silica gel HPLC (sixth purification step)), the “natriuretically active dose range” value lay in the range of 4 to 8 µg/kg. For the same molecule, the “Natriuretic Response (R)” value with conscious rats (silica gel HPLC fraction 17, dose 0.2 μg) is -0.14; in the series on conscious rats (silica gel HPLC fraction 17, dose 1 μg) it was 0.27; in the series with conscious rats (silica gel HPLC fraction 17, dose 2 μg), 1.14 and 0.75; in the series with conscious rats (silica gel HPLC fraction 17, dose 10 μg), 0.26; with conscious rats (silica gel HPLC fraction 18, dose 56.4 μg), 0.23; with conscious rats (silica gel HPLC fraction 18, dose 224 μg), 0.02. Moreover, the “Natriuretic Response (R)” value in the series on conscious rats (silica gel HPLC fraction 19, dose 0.2 μg) was 0.24; with conscious rats (silica gel HPLC fraction 19, dose 1 μg) it was 0.93; in the series on conscious rats (silica gel HPLC fraction 19, dose 10 μg), 0.09. For the same molecule, in the series “Free radical scavenging”, the free radical scavenging entry is listed as “cardio-selective free radical scavenger”. For the same molecule, the “Na^+ /K^+ -ATPase inhibition” value on Na^+ /K^+ -ATPase was “no inhibition”.

The record behind these values is patent US6083982A, “Natriuretic compounds” (Loma Linda University Medical, priority 1998, dated 2000).
